From the NIST ThermoML archive (doi:10.1021/je700339f)
± gives the expanded uncertainty stated by the source.

Experiment: xn = mol fraction of the nth substance listed
Conditions: 298 K, Liquid

ClCCCCCl [1,4-dichlorobutane] + CN(C)C=O
mass density [kg/m3]
Conditions | x2 = 0.1003 | x2 = 0.1923 | x2 = 0.2994 | x2 = 0.4006 | x2 = 0.5022 | x2 = 0.6004 | x2 = 0.7029 | x2 = 0.7943 | x2 = 0.9006
100 kPa | 1119 ± 4.3 | 1105.1 ± 4.3 | 1087.9 ± 4.2 | 1071.2 ± 4.3 | 1052.4 ± 4.4 | 1034 ± 4.5 | 1013.1 ± 4.7 | 993.4 ± 4.9 | 968.9 ± 5.1
500 kPa | 1119.3 ± 4.4 | 1105.4 ± 4.3 | 1088.2 ± 4.2 | 1071.5 ± 4.3 | 1052.7 ± 4.4 | 1034.2 ± 4.5 | 1013.4 ± 4.7 | 993.7 ± 4.9 | 969.2 ± 5.1
1000 kPa | 1119.7 ± 4.4 | 1105.8 ± 4.3 | 1088.6 ± 4.2 | 1071.8 ± 4.3 | 1053.1 ± 4.4 | 1034.6 ± 4.5 | 1013.8 ± 4.7 | 994 ± 4.9 | 969.6 ± 5.1
1500 kPa | 1120.1 ± 4.4 | 1106.1 ± 4.3 | 1089 ± 4.2 | 1072.2 ± 4.3 | 1053.5 ± 4.4 | 1035 ± 4.5 | 1014.1 ± 4.7 | 994.3 ± 5 | 969.8 ± 5
2000 kPa | 1120.4 ± 4.4 | 1106.5 ± 4.3 | 1089.3 ± 4.2 | 1072.6 ± 4.3 | 1053.8 ± 4.4 | 1035.3 ± 4.5 | 1014.4 ± 4.7 | 994.7 ± 4.9 | 970.2 ± 5.1
2500 kPa | 1120.8 ± 4.4 | 1106.9 ± 4.3 | 1089.7 ± 4.2 | 1072.9 ± 4.3 | 1054.2 ± 4.4 | 1035.7 ± 4.5 | 1014.7 ± 4.7 | 995 ± 4.9 | 970.5 ± 5.1
3000 kPa | 1121.2 ± 4.4 | 1107.3 ± 4.3 | 1090.1 ± 4.2 | 1073.3 ± 4.3 | 1054.5 ± 4.4 | 1036 ± 4.5 | 1015.1 ± 4.7 | 995.4 ± 5 | 970.7 ± 5.1
3500 kPa | 1121.6 ± 4.4 | 1107.7 ± 4.3 | 1090.4 ± 4.3 | 1073.6 ± 4.3 | 1054.8 ± 4.4 | 1036.3 ± 4.5 | 1015.4 ± 4.7 | 995.7 ± 5 | 971.1 ± 5.1
4000 kPa | 1122 ± 4.4 | 1108.1 ± 4.3 | 1090.8 ± 4.3 | 1074 ± 4.3 | 1055.2 ± 4.4 | 1036.7 ± 4.5 | 1015.8 ± 4.7 | 996 ± 5 | 971.4 ± 5.1
4500 kPa | 1122.3 ± 4.5 | 1108.4 ± 4.3 | 1091.2 ± 4.3 | 1074.4 ± 4.3 | 1055.5 ± 4.4 | 1037 ± 4.5 | 1016.1 ± 4.7 | 996.4 ± 5 | 971.8 ± 5.1
5000 kPa | 1122.7 ± 4.5 | 1108.8 ± 4.3 | – | – | – | – | – | – | –
